The source of these data is US9790228B2, “Heterocyclic kinase inhibitors” (Intellikine LLC, priority 2008, dated 2017).

pEC50, pIC50: −log10 of the molar value. Bounds are passed on as bounds.

Sequence of p110α/p85α (P42336 whole entry): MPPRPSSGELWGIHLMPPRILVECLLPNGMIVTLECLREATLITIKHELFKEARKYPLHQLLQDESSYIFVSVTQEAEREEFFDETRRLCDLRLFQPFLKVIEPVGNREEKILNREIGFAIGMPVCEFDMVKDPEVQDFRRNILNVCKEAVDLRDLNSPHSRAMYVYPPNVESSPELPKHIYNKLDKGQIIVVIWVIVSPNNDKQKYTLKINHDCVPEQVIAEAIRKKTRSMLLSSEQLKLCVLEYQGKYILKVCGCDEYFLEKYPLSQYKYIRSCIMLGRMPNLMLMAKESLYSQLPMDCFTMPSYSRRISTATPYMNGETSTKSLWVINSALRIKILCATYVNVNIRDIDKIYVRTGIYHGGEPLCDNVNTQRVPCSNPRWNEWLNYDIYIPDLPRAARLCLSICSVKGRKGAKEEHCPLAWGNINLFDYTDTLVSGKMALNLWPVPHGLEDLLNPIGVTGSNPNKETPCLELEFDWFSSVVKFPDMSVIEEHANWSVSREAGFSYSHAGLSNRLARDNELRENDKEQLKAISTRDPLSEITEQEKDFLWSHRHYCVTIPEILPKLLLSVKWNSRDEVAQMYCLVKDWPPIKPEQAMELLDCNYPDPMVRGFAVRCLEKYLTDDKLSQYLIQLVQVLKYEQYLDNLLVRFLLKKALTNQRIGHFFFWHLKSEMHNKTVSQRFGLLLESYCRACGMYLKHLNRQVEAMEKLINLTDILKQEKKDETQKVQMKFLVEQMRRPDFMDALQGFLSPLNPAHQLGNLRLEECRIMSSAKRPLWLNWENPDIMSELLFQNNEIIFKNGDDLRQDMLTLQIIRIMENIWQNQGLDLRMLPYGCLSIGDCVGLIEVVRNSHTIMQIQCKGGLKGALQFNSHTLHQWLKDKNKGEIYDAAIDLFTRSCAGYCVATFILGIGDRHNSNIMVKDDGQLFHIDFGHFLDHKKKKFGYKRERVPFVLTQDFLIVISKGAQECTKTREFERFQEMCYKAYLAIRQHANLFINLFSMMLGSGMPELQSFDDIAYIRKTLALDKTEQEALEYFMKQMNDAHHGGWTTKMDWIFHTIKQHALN
Sequence of p110α/p85α (P27986 whole entry partner): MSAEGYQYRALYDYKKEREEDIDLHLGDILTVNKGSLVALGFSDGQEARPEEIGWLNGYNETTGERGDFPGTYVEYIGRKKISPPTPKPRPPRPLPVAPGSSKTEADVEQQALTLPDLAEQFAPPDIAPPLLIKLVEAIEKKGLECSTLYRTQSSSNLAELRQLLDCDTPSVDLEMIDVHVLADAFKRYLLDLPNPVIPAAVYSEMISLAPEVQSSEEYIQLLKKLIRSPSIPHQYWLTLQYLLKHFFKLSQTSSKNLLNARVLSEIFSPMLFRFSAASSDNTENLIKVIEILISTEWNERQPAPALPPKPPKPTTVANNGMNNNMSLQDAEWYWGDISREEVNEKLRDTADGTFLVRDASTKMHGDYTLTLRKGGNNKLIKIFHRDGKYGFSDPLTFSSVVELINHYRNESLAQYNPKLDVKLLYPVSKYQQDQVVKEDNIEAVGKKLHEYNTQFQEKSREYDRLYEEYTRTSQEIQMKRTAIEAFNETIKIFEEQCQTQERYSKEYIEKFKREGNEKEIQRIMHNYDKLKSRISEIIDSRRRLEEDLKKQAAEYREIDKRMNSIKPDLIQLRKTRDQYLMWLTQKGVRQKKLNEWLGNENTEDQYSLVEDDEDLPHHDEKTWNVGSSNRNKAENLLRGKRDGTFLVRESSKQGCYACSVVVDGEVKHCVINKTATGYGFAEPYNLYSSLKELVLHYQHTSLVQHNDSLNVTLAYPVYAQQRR
Sequence of p110β/p85α (P42338 whole entry, looked up): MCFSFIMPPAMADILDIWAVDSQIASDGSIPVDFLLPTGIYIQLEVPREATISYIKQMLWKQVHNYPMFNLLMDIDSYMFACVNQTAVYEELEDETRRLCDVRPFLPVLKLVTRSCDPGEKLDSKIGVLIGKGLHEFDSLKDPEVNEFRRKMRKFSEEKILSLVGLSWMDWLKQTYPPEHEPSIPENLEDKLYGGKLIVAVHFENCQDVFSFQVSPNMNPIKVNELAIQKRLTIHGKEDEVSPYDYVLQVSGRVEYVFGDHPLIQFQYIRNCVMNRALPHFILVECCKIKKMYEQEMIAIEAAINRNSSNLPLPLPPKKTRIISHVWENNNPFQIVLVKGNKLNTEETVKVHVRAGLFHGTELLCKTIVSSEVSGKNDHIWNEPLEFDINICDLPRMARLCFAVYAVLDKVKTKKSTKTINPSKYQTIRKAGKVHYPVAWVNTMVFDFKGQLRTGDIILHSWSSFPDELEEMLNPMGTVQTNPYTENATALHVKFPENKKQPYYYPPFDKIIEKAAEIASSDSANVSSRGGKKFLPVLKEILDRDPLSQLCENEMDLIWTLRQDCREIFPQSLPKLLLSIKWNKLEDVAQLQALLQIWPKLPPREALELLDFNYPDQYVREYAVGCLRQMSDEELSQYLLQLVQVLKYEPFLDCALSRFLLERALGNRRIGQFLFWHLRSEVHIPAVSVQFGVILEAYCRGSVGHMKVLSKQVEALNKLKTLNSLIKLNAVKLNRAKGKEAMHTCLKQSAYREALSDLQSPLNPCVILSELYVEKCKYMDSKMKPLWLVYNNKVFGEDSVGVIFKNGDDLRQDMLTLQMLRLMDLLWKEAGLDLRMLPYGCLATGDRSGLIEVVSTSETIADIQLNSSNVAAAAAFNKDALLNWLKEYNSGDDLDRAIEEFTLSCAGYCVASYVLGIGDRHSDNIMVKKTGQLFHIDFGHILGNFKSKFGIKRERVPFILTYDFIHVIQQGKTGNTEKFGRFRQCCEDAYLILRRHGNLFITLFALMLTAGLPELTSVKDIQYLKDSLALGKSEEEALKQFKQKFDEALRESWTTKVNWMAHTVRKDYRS
Sequence of p110γ (P48736 whole entry): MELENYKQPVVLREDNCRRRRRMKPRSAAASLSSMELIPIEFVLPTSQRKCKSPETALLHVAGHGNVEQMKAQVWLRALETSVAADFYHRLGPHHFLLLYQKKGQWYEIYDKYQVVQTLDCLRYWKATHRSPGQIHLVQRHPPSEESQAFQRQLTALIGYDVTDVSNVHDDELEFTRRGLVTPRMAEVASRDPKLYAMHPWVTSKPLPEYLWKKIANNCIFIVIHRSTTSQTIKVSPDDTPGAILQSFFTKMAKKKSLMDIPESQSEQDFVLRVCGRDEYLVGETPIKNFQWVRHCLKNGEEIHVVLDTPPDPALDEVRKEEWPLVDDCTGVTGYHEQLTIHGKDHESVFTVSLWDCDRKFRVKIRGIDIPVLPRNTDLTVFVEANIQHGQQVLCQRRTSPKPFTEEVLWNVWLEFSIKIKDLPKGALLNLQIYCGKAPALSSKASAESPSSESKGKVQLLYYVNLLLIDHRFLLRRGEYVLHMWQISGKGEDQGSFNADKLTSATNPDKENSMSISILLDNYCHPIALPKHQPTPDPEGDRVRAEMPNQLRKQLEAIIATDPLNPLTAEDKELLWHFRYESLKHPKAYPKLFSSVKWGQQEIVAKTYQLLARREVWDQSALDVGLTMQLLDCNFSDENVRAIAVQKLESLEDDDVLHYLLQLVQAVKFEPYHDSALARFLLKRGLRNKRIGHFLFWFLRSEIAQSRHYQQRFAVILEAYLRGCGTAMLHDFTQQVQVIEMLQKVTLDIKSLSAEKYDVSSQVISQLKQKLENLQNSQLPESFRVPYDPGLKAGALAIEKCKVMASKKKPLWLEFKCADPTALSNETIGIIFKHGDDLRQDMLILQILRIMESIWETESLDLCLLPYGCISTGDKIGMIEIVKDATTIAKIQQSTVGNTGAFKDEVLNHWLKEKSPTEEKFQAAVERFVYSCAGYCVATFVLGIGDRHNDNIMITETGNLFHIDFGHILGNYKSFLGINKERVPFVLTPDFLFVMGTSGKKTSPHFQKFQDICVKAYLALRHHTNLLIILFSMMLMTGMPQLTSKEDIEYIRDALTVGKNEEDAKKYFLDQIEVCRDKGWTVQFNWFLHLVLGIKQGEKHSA

The target in the first experiment is p110δ/p85α (Homo sapiens (Human), UniProt O00329). In words: PI3K δ inhibition assay (TLC lipid kinase or HTRF).
Sequence of p110δ/p85α (O00329 whole entry): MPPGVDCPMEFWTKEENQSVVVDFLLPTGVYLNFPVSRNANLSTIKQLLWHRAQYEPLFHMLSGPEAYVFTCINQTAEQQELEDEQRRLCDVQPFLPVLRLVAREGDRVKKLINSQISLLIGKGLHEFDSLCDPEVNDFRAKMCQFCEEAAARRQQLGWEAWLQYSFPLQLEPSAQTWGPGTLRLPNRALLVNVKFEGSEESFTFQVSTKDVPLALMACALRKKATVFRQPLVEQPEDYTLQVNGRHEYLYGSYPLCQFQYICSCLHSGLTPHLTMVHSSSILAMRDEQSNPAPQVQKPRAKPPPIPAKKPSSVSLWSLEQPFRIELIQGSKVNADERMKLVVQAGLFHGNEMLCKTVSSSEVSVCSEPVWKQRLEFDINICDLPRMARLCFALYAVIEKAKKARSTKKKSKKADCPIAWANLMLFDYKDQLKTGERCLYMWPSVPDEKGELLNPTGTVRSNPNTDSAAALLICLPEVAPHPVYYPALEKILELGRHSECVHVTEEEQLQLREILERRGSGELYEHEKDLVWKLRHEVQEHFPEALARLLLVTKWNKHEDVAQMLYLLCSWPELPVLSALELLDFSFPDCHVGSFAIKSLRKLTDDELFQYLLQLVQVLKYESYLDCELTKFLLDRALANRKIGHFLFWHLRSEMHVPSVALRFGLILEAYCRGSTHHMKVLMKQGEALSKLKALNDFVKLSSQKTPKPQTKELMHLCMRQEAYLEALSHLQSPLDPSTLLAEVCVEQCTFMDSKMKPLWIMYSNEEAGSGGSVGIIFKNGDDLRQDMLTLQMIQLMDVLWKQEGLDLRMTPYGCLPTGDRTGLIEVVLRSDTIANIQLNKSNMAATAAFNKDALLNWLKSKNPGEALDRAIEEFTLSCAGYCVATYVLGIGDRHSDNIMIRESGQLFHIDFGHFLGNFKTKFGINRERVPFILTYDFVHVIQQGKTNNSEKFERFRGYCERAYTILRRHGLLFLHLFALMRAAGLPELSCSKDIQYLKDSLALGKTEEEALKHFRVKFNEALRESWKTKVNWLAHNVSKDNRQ
Sequence of p110δ/p85α (P27986 whole entry partner): as the sequence (P27986 whole entry partner) above
Details: not given
The format is biochemical. The essentials: (§1)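 IC50 from TLC lipid kinase assay (25 mM HEPES pH 7.4, 10 mM MgCl2, 100 μg/ml phosphatidylinositol, 10 or 100 μM γ-32P-ATP, 5 min RT, phosphorimager) at 10–12 two-fold dilutions, or HTRF (10 μM PIP2, 10 μM ATP, 1 h RT) measuring PIP3 by TR-FRET; 2% DMSO final.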
Usually pIC50 stands for the IC50 on a negative log10 scale, so that one unit is a factor of ten. As to `CC(c1cc2ccccc2nc1-c1ccccc1)n1nc(-c2cccc(O)c2)c2c(N)ncnc21` (centres unmarked) [Compound 59], the negative logarithm of the IC50 (pIC50) was above 7.00.
Still for that read-out and setting: as for `Nc1nc2ccc(-c3nn(Cc4cc5ccccc5nc4N4CCCC4)c4ncnc(N)c34)cc2s1` [Compound 79], the figure is above 7.00; as for `CCC(c1cc2ccccc2nc1N1CCCC1)n1nc(-c2cc(O)cc(F)c2)c2c(N)ncnc21` (centres unmarked) [Compound 40], above 7.00.
Same read-out and setting: as for `Nc1ncc2cc(-c3nn(Cc4cc5ccccc5nc4-c4ccccc4)c4ncnc(N)c34)ccc2n1` [Compound 143], the figure is above 7.00; as for `CN1CCN(c2nc3ccccc3cc2Cn2nc(-c3cc(O)cc(F)c3)c3c(N)ncnc32)CC1` [Compound 50], above 7.00.
Molecule `Cc1cccc2cc(Cn3nc(I)c4c(N)ncnc43)c(N3CCCC3)nc12` [Compound 6] had a negative-log IC50 (pIC50) above 7.00.
`CC(c1cc2ccccc2nc1N1CCN(C)CC1)n1nc(-c2cccc(O)c2)c2c(N)ncnc21` (centres unmarked) [Compound 72]: the pIC50 was above 7.00.
Still for that read-out and setting: with `Nc1ncnc2c1c(-c1cc(O)cc(F)c1)nn2Cc1cc2ccccc2nc1CCN1CCCC1` [Compound 165] the figure was above 7.00; with `CC(C)Oc1nc2ccccc2cc1Cn1nc(-c2cc(O)cc(F)c2)c2c(N)ncnc21` [Compound 156], above 7.00.
For `Nc1nc2ccc(-c3nn(Cc4cc5ccccc5nc4N4CCOCC4)c4ncnc(N)c34)cc2s1` [Compound 129], the pIC50 was above 7.00.
`Cc1ccccc1-c1nc2ccccc2cc1Cn1nc(-c2ccc3cc(N)sc3c2)c2c(N)ncnc21` [Compound 86] showed a pIC50 above 7.00.
Still for that read-out and setting: with `CC(C)N(C)c1nc2ccccc2cc1Cn1nc(-c2ccc3nc(N)[nH]c3c2)c2c(N)ncnc21` [Compound 184] the figure was above 7.00.
The same measure, in the same setting: with `CC(=O)Nc1nc2ccc(-c3nn(Cc4cc5ccccc5nc4-n4cnc(C)c4)c4ncnc(N)c34)cc2s1` [Compound 171] the figure was above 7.00.

A further experiment addresses p110γ (Homo sapiens (Human), UniProt P48736). In words: PI3K γ inhibition assay (TLC lipid kinase or HTRF). The format is biochemical.
Details: not given
The essentials: as §1
For orientation: In TR-FRET formats the signal depends on donor and acceptor labels being close together.
`CC(c1cc2ccccc2nc1-c1ccccc1)n1nc(-c2cccc(O)c2)c2c(N)ncnc21` (centres unmarked) [Compound 59] gave a pIC50 of 6.00 to 7.00.
As for `Nc1nc2ccc(-c3nn(Cc4cc5ccccc5nc4N4CCCC4)c4ncnc(N)c34)cc2s1` [Compound 79], the pIC50 is above 7.00.
Turning to `CCC(c1cc2ccccc2nc1N1CCCC1)n1nc(-c2cc(O)cc(F)c2)c2c(N)ncnc21` (centres unmarked) [Compound 40], the pIC50 is 6.00 to 7.00.
Still for that read-out and setting: as for `Nc1ncc2cc(-c3nn(Cc4cc5ccccc5nc4-c4ccccc4)c4ncnc(N)c34)ccc2n1` [Compound 143], the figure is above 7.00.
The same measure, in the same setting: as for `CN1CCN(c2nc3ccccc3cc2Cn2nc(-c3cc(O)cc(F)c3)c3c(N)ncnc32)CC1` [Compound 50], the figure is below 6.00; as for `Cc1cccc2cc(Cn3nc(I)c4c(N)ncnc43)c(N3CCCC3)nc12` [Compound 6], below 6.00.
For the molecule `CC(c1cc2ccccc2nc1N1CCN(C)CC1)n1nc(-c2cccc(O)c2)c2c(N)ncnc21` (centres unmarked) [Compound 72], the pIC50 was below 6.00.
Consider `Nc1ncnc2c1c(-c1cc(O)cc(F)c1)nn2Cc1cc2ccccc2nc1CCN1CCCC1` [Compound 165], for which the pIC50 is below 6.00.
Consider `CC(C)Oc1nc2ccccc2cc1Cn1nc(-c2cc(O)cc(F)c2)c2c(N)ncnc21` [Compound 156], for which the pIC50 is 6.00 to 7.00.
As to `Nc1nc2ccc(-c3nn(Cc4cc5ccccc5nc4N4CCOCC4)c4ncnc(N)c34)cc2s1` [Compound 129], the pIC50 was above 7.00.
Take `Cc1ccccc1-c1nc2ccccc2cc1Cn1nc(-c2ccc3cc(N)sc3c2)c2c(N)ncnc21` [Compound 86]: the negative-log IC50 (pIC50) is above 7.00.
In the case of `CC(C)N(C)c1nc2ccccc2cc1Cn1nc(-c2ccc3nc(N)[nH]c3c2)c2c(N)ncnc21` [Compound 184], the pIC50 was above 7.00.
The same measure, in the same setting: with `CC(=O)Nc1nc2ccc(-c3nn(Cc4cc5ccccc5nc4-n4cnc(C)c4)c4ncnc(N)c34)cc2s1` [Compound 171] the figure was above 7.00.

The next experiment has as its target p110β/p85α (Homo sapiens, UniProt P42338). In words: PI3K β inhibition assay (TLC lipid kinase or HTRF). The format is biochemical. The following applies: read-out: PI3K β IC50. The essentials: as §1
Regarding `CC(c1cc2ccccc2nc1-c1ccccc1)n1nc(-c2cccc(O)c2)c2c(N)ncnc21` (centres unmarked) [Compound 59], the pIC50 was below 6.00.
On the same count and under the same terms, as for `Nc1nc2ccc(-c3nn(Cc4cc5ccccc5nc4N4CCCC4)c4ncnc(N)c34)cc2s1` [Compound 79], the figure is below 6.00; as for `CCC(c1cc2ccccc2nc1N1CCCC1)n1nc(-c2cc(O)cc(F)c2)c2c(N)ncnc21` (centres unmarked) [Compound 40], below 6.00; as for `Nc1ncc2cc(-c3nn(Cc4cc5ccccc5nc4-c4ccccc4)c4ncnc(N)c34)ccc2n1` [Compound 143], below 6.00.
On the same count and under the same terms, with `CN1CCN(c2nc3ccccc3cc2Cn2nc(-c3cc(O)cc(F)c3)c3c(N)ncnc32)CC1` [Compound 50] the figure was above 7.00.
As for `Cc1cccc2cc(Cn3nc(I)c4c(N)ncnc43)c(N3CCCC3)nc12` [Compound 6], the pIC50 is below 6.00.
Same read-out and setting: as for `CC(c1cc2ccccc2nc1N1CCN(C)CC1)n1nc(-c2cccc(O)c2)c2c(N)ncnc21` (centres unmarked) [Compound 72], the figure is 6.00 to 7.00.
With `Nc1ncnc2c1c(-c1cc(O)cc(F)c1)nn2Cc1cc2ccccc2nc1CCN1CCCC1` [Compound 165], the pIC50 is 6.00 to 7.00.
On the same count and under the same terms, with `CC(C)Oc1nc2ccccc2cc1Cn1nc(-c2cc(O)cc(F)c2)c2c(N)ncnc21` [Compound 156] the figure was below 6.00; with `Nc1nc2ccc(-c3nn(Cc4cc5ccccc5nc4N4CCOCC4)c4ncnc(N)c34)cc2s1` [Compound 129], 6.00 to 7.00; with `Cc1ccccc1-c1nc2ccccc2cc1Cn1nc(-c2ccc3cc(N)sc3c2)c2c(N)ncnc21` [Compound 86], below 6.00.
The same measure, in the same setting: as for `CC(C)N(C)c1nc2ccccc2cc1Cn1nc(-c2ccc3nc(N)[nH]c3c2)c2c(N)ncnc21` [Compound 184], the figure is below 6.00; as for `CC(=O)Nc1nc2ccc(-c3nn(Cc4cc5ccccc5nc4-n4cnc(C)c4)c4ncnc(N)c34)cc2s1` [Compound 171], below 6.00.

A further experiment concerns the target p110α/p85α (Homo sapiens (Human), UniProt P42336). Description: PI3K α inhibition assay (TLC lipid kinase or HTRF). The format is biochemical.
Details: not given
The essentials: as §1
For `CC(c1cc2ccccc2nc1-c1ccccc1)n1nc(-c2cccc(O)c2)c2c(N)ncnc21` (centres unmarked) [Compound 59], the pIC50 was below 6.00.
On the same count and under the same terms, as for `Nc1nc2ccc(-c3nn(Cc4cc5ccccc5nc4N4CCCC4)c4ncnc(N)c34)cc2s1` [Compound 79], the figure is above 7.00; as for `CCC(c1cc2ccccc2nc1N1CCCC1)n1nc(-c2cc(O)cc(F)c2)c2c(N)ncnc21` (centres unmarked) [Compound 40], below 6.00.
`Nc1ncc2cc(-c3nn(Cc4cc5ccccc5nc4-c4ccccc4)c4ncnc(N)c34)ccc2n1` [Compound 143] gave a negative-log IC50 (pIC50) of 6.00 to 7.00.
Still for that read-out and setting: as for `CN1CCN(c2nc3ccccc3cc2Cn2nc(-c3cc(O)cc(F)c3)c3c(N)ncnc32)CC1` [Compound 50], the figure is below 6.00; as for `Cc1cccc2cc(Cn3nc(I)c4c(N)ncnc43)c(N3CCCC3)nc12` [Compound 6], below 6.00.
Still for that read-out and setting: with `CC(c1cc2ccccc2nc1N1CCN(C)CC1)n1nc(-c2cccc(O)c2)c2c(N)ncnc21` (centres unmarked) [Compound 72] the figure was below 6.00; with `Nc1ncnc2c1c(-c1cc(O)cc(F)c1)nn2Cc1cc2ccccc2nc1CCN1CCCC1` [Compound 165], below 6.00.
The same measure, in the same setting: as for `CC(C)Oc1nc2ccccc2cc1Cn1nc(-c2cc(O)cc(F)c2)c2c(N)ncnc21` [Compound 156], the figure is below 6.00.
Take `Nc1nc2ccc(-c3nn(Cc4cc5ccccc5nc4N4CCOCC4)c4ncnc(N)c34)cc2s1` [Compound 129]: the negative logarithm of the IC50 (pIC50) was above 7.00.
Same read-out and setting: with `Cc1ccccc1-c1nc2ccccc2cc1Cn1nc(-c2ccc3cc(N)sc3c2)c2c(N)ncnc21` [Compound 86] the figure was below 6.00; with `CC(C)N(C)c1nc2ccccc2cc1Cn1nc(-c2ccc3nc(N)[nH]c3c2)c2c(N)ncnc21` [Compound 184], below 6.00; with `CC(=O)Nc1nc2ccc(-c3nn(Cc4cc5ccccc5nc4-n4cnc(C)c4)c4ncnc(N)c34)cc2s1` [Compound 171], 6.00 to 7.00.

The next experiment relates to Balb/c splenic B cells. Description: B cell activation and proliferation assay (Alamar Blue). It is filed as cell-based, mouse. The settings on record: Mus musculus, B-cell. The essentials:
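Purified Balb/c splenic B cells, 50,000/well, pretreated with compound 30 min (0.2% DMSO), then stimulated with 10 ug/ml LPS or 5 ug/ml anti-IgM F(ab′)2 plus 2 ng/ml IL4 (cocktail concentrations) for 72 h at 37 °C. Alamar Blue 5 h, fluorescence 560/590 nm; IC50/EC50 calculated.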
A general note: Alamar Blue is a resazurin reagent that responds to reducing activity.
A word on the pEC50: it is the EC50 on a negative log10 scale, so that one unit is a factor of ten. The low end stands for a large EC50, the high end for a small EC50. The molecule `CC(c1cc2ccccc2nc1-c1ccccc1)n1nc(-c2cccc(O)c2)c2c(N)ncnc21` (centres unmarked) [Compound 59] had a negative logarithm of the EC50 (pEC50) above 7.00.
For `Nc1nc2ccc(-c3nn(Cc4cc5ccccc5nc4N4CCCC4)c4ncnc(N)c34)cc2s1` [Compound 79], the pEC50 was above 7.00.
The molecule `CCC(c1cc2ccccc2nc1N1CCCC1)n1nc(-c2cc(O)cc(F)c2)c2c(N)ncnc21` (centres unmarked) [Compound 40] gave a negative logarithm of the EC50 (pEC50) above 7.00.
In turn, `Nc1ncc2cc(-c3nn(Cc4cc5ccccc5nc4-c4ccccc4)c4ncnc(N)c34)ccc2n1` [Compound 143] had a pEC50 above 7.00.
Consider `CN1CCN(c2nc3ccccc3cc2Cn2nc(-c3cc(O)cc(F)c3)c3c(N)ncnc32)CC1` [Compound 50], for which the pEC50 is above 7.00.
Regarding `Cc1cccc2cc(Cn3nc(I)c4c(N)ncnc43)c(N3CCCC3)nc12` [Compound 6], the pEC50 is 6.00 to 7.00.
As to `CC(c1cc2ccccc2nc1N1CCN(C)CC1)n1nc(-c2cccc(O)c2)c2c(N)ncnc21` (centres unmarked) [Compound 72], the pEC50 is above 7.00.
As for `Nc1ncnc2c1c(-c1cc(O)cc(F)c1)nn2Cc1cc2ccccc2nc1CCN1CCCC1` [Compound 165], the negative-log EC50 (pEC50) was above 7.00.
Still for that read-out and setting: as for `CC(C)Oc1nc2ccccc2cc1Cn1nc(-c2cc(O)cc(F)c2)c2c(N)ncnc21` [Compound 156], the figure is 6.00 to 7.00; as for `Nc1nc2ccc(-c3nn(Cc4cc5ccccc5nc4N4CCOCC4)c4ncnc(N)c34)cc2s1` [Compound 129], above 7.00.
With `Cc1ccccc1-c1nc2ccccc2cc1Cn1nc(-c2ccc3cc(N)sc3c2)c2c(N)ncnc21` [Compound 86], the negative-log EC50 (pEC50) was 6.00 to 7.00.
Same read-out and setting: as for `CC(C)N(C)c1nc2ccccc2cc1Cn1nc(-c2ccc3nc(N)[nH]c3c2)c2c(N)ncnc21` [Compound 184], the figure is 6.00 to 7.00.
On the same count and under the same terms, with `CC(=O)Nc1nc2ccc(-c3nn(Cc4cc5ccccc5nc4-n4cnc(C)c4)c4ncnc(N)c34)cc2s1` [Compound 171] the figure was above 7.00.
